{"source": "paper PMC11471635", "about": "“Linkage of alternative exon assembly in Drosophila TrpA1 transcripts” (Molecules and Cells, 2024)", "experiment_in_all_cases": "two-electrode voltage clamp, Xenopus oocytes", "format_in_all_cases": "cell-based", "key": {"humTRPA1": {"biological_target": "T1, humTRPA1 (Homo sapiens, UniProt O75762)", "T1 construct": "gene TRPA1; human TRPA1; cRNA-injected Xenopus laevis oocytes (electrophysiology as for insect TRPA1s)", "T1 sequence (O75762 whole entry)": "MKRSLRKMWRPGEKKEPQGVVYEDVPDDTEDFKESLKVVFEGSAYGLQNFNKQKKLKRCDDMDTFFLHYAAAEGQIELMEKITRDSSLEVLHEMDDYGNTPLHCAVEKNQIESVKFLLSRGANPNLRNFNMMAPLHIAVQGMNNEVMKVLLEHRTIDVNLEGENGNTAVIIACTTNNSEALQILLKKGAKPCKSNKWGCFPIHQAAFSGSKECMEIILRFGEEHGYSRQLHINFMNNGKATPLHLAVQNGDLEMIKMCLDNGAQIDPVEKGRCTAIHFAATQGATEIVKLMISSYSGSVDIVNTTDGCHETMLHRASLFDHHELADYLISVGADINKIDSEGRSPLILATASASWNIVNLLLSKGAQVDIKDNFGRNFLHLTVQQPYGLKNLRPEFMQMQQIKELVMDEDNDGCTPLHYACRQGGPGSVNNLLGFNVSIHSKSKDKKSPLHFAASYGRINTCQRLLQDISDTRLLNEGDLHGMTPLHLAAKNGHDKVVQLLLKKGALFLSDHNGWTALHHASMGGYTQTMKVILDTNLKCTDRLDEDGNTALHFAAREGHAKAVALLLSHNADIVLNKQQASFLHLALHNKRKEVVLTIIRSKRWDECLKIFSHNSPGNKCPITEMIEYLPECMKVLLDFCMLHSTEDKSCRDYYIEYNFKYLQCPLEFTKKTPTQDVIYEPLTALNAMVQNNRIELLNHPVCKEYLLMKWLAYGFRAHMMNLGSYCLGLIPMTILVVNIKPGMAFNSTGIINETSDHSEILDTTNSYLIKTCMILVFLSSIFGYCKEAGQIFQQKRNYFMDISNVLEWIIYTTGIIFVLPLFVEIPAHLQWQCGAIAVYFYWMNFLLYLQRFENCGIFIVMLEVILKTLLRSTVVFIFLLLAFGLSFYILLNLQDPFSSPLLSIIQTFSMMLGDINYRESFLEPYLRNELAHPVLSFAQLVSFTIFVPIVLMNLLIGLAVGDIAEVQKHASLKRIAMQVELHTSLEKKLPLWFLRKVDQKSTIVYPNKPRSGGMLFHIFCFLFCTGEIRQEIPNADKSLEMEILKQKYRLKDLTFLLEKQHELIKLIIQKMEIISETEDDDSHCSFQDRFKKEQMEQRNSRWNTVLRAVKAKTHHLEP"}, "[1]": {"biological_target": "T2, TRPA1(A) (TRPA1(A)-exon10a) (Drosophila melanogaster, UniProt Q7Z020)", "T2 construct": "full-length isoform with exon1a-encoded N-terminus and exon10a-encoded BAT domain; cRNA-injected Xenopus laevis oocytes", "T2 sequence (Q7Z020 1-1197)": "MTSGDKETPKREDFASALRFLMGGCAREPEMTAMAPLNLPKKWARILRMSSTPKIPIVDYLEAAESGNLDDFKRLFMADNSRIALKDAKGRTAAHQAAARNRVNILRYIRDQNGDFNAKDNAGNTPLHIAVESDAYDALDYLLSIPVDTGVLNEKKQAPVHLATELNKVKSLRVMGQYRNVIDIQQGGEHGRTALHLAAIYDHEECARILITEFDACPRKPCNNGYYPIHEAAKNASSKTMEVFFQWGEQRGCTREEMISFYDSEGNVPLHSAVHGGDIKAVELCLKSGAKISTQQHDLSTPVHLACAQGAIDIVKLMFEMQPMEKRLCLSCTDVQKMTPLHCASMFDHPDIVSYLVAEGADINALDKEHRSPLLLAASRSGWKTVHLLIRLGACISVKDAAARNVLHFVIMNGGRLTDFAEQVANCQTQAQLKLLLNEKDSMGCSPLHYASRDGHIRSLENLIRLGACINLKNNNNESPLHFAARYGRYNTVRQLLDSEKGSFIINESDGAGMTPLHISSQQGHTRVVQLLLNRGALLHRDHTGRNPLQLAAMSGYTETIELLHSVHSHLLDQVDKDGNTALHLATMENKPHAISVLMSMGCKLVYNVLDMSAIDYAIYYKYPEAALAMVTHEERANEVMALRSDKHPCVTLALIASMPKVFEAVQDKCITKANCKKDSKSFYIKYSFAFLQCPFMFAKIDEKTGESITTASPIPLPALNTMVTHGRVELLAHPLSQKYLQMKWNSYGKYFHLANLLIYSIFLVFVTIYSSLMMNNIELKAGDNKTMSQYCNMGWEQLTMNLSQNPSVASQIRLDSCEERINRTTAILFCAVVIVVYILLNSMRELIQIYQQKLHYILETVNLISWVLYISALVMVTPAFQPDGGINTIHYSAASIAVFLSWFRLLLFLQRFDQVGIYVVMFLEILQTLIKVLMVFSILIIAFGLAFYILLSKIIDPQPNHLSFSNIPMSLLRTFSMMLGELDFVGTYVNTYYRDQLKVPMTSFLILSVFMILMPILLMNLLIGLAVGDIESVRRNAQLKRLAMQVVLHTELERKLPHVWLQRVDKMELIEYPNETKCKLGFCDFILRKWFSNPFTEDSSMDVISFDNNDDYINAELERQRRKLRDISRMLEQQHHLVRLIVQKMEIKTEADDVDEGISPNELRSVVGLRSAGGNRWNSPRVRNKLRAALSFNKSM"}, "agTRPA1(B)": {"biological_target": "T3, agTRPA1(B) (Anopheles gambiae, UniProt B3G3I7)", "T3 construct": "isoform with TRPA1(B)-type N-terminus and exon6a-encoded BAT; cRNA-injected Xenopus laevis oocytes", "T3 sequence (B3G3I7 1-1248)": "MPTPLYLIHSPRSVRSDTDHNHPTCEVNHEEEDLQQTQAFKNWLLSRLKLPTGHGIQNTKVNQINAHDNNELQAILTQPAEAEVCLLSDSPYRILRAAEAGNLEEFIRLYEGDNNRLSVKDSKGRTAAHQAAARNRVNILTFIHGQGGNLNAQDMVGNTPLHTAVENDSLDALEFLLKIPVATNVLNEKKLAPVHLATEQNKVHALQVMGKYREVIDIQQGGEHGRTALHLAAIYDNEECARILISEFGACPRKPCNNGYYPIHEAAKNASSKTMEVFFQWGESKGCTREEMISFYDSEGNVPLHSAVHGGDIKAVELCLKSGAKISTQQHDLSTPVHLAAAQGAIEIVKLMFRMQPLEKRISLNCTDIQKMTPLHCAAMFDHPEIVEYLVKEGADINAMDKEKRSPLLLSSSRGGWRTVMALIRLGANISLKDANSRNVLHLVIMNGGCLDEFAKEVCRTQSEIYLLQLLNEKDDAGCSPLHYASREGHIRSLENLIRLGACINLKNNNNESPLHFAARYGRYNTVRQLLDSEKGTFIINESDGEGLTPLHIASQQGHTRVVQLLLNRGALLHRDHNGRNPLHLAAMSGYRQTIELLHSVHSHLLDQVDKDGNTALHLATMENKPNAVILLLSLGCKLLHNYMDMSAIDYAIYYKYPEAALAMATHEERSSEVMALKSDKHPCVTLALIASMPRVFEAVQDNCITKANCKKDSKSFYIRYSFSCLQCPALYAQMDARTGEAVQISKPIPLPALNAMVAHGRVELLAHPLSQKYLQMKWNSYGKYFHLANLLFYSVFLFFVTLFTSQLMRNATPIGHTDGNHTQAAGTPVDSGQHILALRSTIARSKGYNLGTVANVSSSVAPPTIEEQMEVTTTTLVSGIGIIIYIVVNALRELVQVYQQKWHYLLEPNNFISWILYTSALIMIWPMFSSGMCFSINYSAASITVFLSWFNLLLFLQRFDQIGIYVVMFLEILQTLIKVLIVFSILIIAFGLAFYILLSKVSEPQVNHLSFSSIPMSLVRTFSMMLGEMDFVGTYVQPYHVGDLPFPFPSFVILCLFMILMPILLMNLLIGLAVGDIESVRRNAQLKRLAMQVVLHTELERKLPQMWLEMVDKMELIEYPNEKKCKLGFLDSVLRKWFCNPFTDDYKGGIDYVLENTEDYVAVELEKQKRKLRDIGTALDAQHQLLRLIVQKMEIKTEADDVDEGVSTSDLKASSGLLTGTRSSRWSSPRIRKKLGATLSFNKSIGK"}, "agTRPA1(A)": {"biological_target": "T4, agTRPA1(A) (Anopheles gambiae, UniProt A0A1S4GN50)", "T4 construct": "isoform with TRPA1(A)-type N-terminus and exon6a-encoded BAT; cRNA-injected Xenopus laevis oocytes", "T4 sequence (A0A1S4GN50 1-1208)": "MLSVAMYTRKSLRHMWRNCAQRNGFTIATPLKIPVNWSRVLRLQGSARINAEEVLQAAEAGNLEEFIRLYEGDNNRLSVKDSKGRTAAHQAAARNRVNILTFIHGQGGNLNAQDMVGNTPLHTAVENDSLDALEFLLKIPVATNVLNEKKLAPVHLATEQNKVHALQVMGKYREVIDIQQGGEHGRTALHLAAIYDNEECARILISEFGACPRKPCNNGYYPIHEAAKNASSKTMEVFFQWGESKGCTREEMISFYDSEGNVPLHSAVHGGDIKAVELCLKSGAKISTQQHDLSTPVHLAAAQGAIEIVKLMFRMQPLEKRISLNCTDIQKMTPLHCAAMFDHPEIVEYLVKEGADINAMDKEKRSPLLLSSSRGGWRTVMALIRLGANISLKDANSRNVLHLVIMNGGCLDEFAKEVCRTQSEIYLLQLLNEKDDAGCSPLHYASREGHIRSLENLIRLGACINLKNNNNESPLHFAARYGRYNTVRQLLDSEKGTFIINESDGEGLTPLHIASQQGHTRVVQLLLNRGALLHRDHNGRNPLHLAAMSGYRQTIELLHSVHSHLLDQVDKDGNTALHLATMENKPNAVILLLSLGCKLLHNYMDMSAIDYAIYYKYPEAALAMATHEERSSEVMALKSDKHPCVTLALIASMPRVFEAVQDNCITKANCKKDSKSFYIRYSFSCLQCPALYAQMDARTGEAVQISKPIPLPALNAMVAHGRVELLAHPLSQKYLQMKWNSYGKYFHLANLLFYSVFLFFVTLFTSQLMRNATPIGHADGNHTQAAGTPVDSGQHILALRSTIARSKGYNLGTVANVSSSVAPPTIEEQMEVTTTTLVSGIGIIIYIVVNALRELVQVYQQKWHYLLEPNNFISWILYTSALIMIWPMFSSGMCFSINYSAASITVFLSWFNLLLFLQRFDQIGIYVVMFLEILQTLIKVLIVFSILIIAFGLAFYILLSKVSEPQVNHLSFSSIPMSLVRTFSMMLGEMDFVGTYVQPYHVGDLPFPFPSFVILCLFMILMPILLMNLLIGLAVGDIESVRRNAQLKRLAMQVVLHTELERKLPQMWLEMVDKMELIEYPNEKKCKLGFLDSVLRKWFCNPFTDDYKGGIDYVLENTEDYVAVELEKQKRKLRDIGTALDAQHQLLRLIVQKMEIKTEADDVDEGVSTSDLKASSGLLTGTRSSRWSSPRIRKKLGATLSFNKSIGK"}}}
{"smiles": "CN1C(=O)C=CC1=O", "note": "[N-methyl maleimide]", "values": [{"measurement": "EC50", "setting": "humTRPA1", "result": "5.1 ± 0.5", "unit": "µM"}, {"measurement": "EC50", "setting": "[1]", "result": "13.6 ± 0.6", "unit": "µM"}, {"measurement": "EC50", "setting": "agTRPA1(B)", "result": "39.5 ± 1.1", "unit": "µM"}, {"measurement": "EC50", "setting": "agTRPA1(A)", "result": "43.8 ± 3.9", "unit": "µM"}]}
